# *1 amine or outer side, *2 acyl side, *3 side chain or, on linkers, in order; H or OH if unused. Where a SMILES comes first, the peptide text is derived from it. [ ]: non-standard residue; d: D form. Phe(4-(4-Ac-piperazinyl)) = CC(=O)N1CCN(c2ccc(C[C@H](N)C(=O)O)cc2)CC1; Trp(βS-Me,4-F) = C[C@@H](c1c[nH]c2cccc(F)c12)[C@H](N)C(=O)O; Bip(4'-COOH) = N[C@@H](Cc1ccc(-c2ccc(C(=O)O)cc2)cc1)C(=O)O; 1Nal(3S-Me) = C[C@@H](c1cccc2ccccc12)[C@H](N)C(=O)O; Phe(4-COOH) = N[C@@H](Cc1ccc(C(=O)O)cc1)C(=O)O; dαMeDab = C[C@](CCN[*:3])(N[*:1])C(=O)[*:2]; Pro(4R-NH2) = N[C@H]1CN[C@H](C(=O)O)C1; 1Nal = N[C@@H](Cc1cccc2ccccc12)C(=O)O; hTyr = N[C@@H](CCc1ccc(O)cc1)C(=O)O; hCha = N[C@@H](CCC1CCCCC1)C(=O)O; 4Pal = N[C@@H](Cc1ccncc1)C(=O)O; dDab = NCC[C@@H](N)C(=O)O; dNMeA = CN[C@H](C)C(=O)O; Dab = NCC[C@H](N)C(=O)O; Dap = NC[C@H](N)C(=O)O; Aib = CC(C)(N)C(=O)O
# Molecular target: T1, Recombinant human IL-1β (Homo sapiens, UniProt P01584)
# T1 construct: purchased BioLegend 579404
# Experiment: IL-6 assay in MRC5 cells: inhibition of IL-1β induced IL-6 secretion (AlphaLISA)
# Type: cell-based
# Conditions: inhibition of IL-1β induced IL-6 secretion in MRC5 cells; IL-1β pre-incubated 1 hour with compound; read-out: MRC5 IC50
# Summary of the method: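 IL-1β at 2×EC80 in seeding medium (EMEM, 0.025% BSA) preincubated 1 h at ambient temperature with compound, then 3000 MRC5 cells/well added and incubated overnight at 37 °C, 5% CO2. IL-6 in conditioned medium quantified by AlphaLISA; IC50 from 4-parameter logistic fit.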
# T1 sequence (P01584 117-269): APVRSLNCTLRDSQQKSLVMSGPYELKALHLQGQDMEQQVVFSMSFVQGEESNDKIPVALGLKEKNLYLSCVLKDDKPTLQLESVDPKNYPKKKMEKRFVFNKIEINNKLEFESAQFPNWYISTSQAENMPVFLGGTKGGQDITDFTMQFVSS
row,IC50 [nM],Structure (SMILES)
1,0.296,"CC(C)C[C@@H]1NC(=O)[C@H](CCCCN)NC(=O)[C@H](Cc2ccc(-c3ccc(C(=O)O)cc3)cc2)NC(=O)CNC(=O)[C@@H](C)N(C)C(=O)[C@H](CC(=O)O)NC(=O)[C@H]([C@@H](C)c2c[nH]c3cccc(F)c23)NC(=O)[C@@H]2C[C@@H](N)CN2C(=O)CNC(=O)[C@H](Cc2ccc(C(=O)O)cc2)NC(=O)[C@H](Cc2c[nH]c3ccccc23)NC(=O)[C@H](Cc2ccc(-c3ccc(C(=O)O)cc3)cc2)NC(=O)[C@H](CCc2ccc(O)cc2)NC(=O)[C@@H](CCN)NC1=O [Example 68] (cyclo([Bip(4'-COOH)]W[Phe(4-COOH)]G[Pro(4R-NH2)][Trp(βS-Me,4-F)]D[dNMeA]G[Bip(4'-COOH)]KL[dDab][hTyr]))"
2,0.653,C[C@@H]1C(=O)NCC(=O)N[C@@H](Cc2ccc(-c3ccc(C(=O)O)cc3)cc2)C(=O)N[C@@H](Cc2cccc3ccccc23)C(=O)N[C@@H](CCN)C(=O)NC(C)(C)C(=O)NCC(=O)N[C@@H](Cc2ccc(-c3ccc(C(=O)O)cc3)cc2)C(=O)N[C@@H](Cc2c[nH]c3ccccc23)C(=O)N[C@@H](Cc2ccc(C(=O)O)cc2)C(=O)NCC(=O)N2C[C@H](N)C[C@H]2C(=O)N[C@@H]([C@@H](C)c2cccc3ccccc23)C(=O)N[C@@H](CC(=O)O)C(=O)N1C [Example 15] (cyclo([Bip(4'-COOH)]W[Phe(4-COOH)]G[Pro(4R-NH2)][1Nal(3S-Me)]D[dNMeA]G[Bip(4'-COOH)][1Nal][Dab][Aib]G))
3,0.0601,"C[C@@H]1C(=O)NCC(=O)N[C@@H](Cc2ccc(-c3ccc(C(=O)O)cc3)cc2)C(=O)N[C@@H](Cc2c[nH]c3ccccc23)C(=O)NCC(=O)N[C@H](CCN)C(=O)N[C@@H](CCc2ccc(O)cc2)C(=O)N[C@@H](Cc2ccc(-c3ccc(C(=O)O)cc3)cc2)C(=O)N[C@@H](Cc2c[nH]c3ccccc23)C(=O)N[C@@H](Cc2ccc(C(=O)O)cc2)C(=O)NCC(=O)N2C[C@H](N)C[C@H]2C(=O)N[C@@H]([C@@H](C)c2c[nH]c3cccc(F)c23)C(=O)N[C@@H](CC(=O)O)C(=O)N1C [Example 77] (cyclo([Bip(4'-COOH)]W[Phe(4-COOH)]G[Pro(4R-NH2)][Trp(βS-Me,4-F)]D[dNMeA]G[Bip(4'-COOH)]WG[dDab][hTyr]))"
4,0.0542,CC(C)C[C@@H]1NC(=O)[C@H](CCCCN)NC(=O)[C@H](Cc2ccc(-c3ccc(C(=O)O)cc3)cc2)NC(=O)CNC(=O)[C@@H](C)N(C)C(=O)[C@H](CC(=O)O)NC(=O)[C@H]([C@@H](C)c2cccc3ccccc23)NC(=O)[C@@H]2C[C@@H](N)CN2C(=O)CNC(=O)[C@H](Cc2ccc(C(=O)O)cc2)NC(=O)[C@H](Cc2c[nH]c3ccccc23)NC(=O)[C@H](Cc2ccc(-c3ccc(C(=O)O)cc3)cc2)NC(=O)[C@H](CCc2ccc(O)cc2)NC(=O)[C@@H](C)NC1=O [Example 25] (cyclo([Bip(4'-COOH)]W[Phe(4-COOH)]G[Pro(4R-NH2)][1Nal(3S-Me)]D[dNMeA]G[Bip(4'-COOH)]KL[dA][hTyr]))
5,0.334,"CC(C)C[C@@H]1NC(=O)[C@H](CCCCN)NC(=O)[C@H](Cc2ccc(-c3ccc(C(=O)O)cc3)cc2)NC(=O)CNC(=O)[C@@H](C)N(C)C(=O)[C@H](CC(=O)O)NC(=O)[C@H]([C@@H](C)c2c[nH]c3cccc(F)c23)NC(=O)[C@@H]2C[C@@H](N)CN2C(=O)CNC(=O)[C@H](Cc2ccc(C(=O)O)cc2)NC(=O)[C@H](Cc2c[nH]c3ccccc23)NC(=O)[C@H](Cc2ccc(-c3ccc(C(=O)O)cc3)cc2)NC(=O)[C@H](CCc2ccc(O)cc2)NC(=O)[C@@H](CO)NC1=O [Example 69] (cyclo([Bip(4'-COOH)]W[Phe(4-COOH)]G[Pro(4R-NH2)][Trp(βS-Me,4-F)]D[dNMeA]G[Bip(4'-COOH)]KL[dS][hTyr]))"

# Same assay, conditions: inhibition of IL-1β induced IL-6 secretion in MRC5 cells; read-out: MRC5 IC50
row,IC50 [nM],Structure (SMILES)
1,0.015,CC(=O)N1CCN(c2ccc(C[C@@H]3NC(=O)[C@H](CCC4CCCCC4)NC(=O)[C@@H](C)NC(=O)[C@H](CC(C)C)NC(=O)[C@H](CN)NC(=O)[C@H](Cc4ccc(-c5ccc(C(=O)O)cc5)cc4)NC(=O)CNC(=O)[C@@H](C)N(C)C(=O)[C@H](CC(=O)O)NC(=O)[C@H]([C@@H](C)c4cccc5ccccc45)NC(=O)[C@@H]4C[C@@H](N)CN4C(=O)CNC(=O)[C@H](Cc4ccc(C(=O)O)cc4)NC(=O)[C@H](Cc4c[nH]c5ccccc45)NC3=O)cc2)CC1 [Example 206] (cyclo([Phe(4-(4-Ac-piperazinyl))]W[Phe(4-COOH)]G[Pro(4R-NH2)][1Nal(3S-Me)]D[dNMeA]G[Bip(4'-COOH)][Dap]L[dA][hCha]))
2,0.024,CC(=O)N1CCN(c2ccc(C[C@@H]3NC(=O)[C@H](CCC4CCCCC4)NC(=O)[C@@](C)(CCN)NC(=O)CNC(=O)[C@H](Cc4ccncc4)NC(=O)[C@H](Cc4ccc(-c5ccc(C(=O)O)cc5)cc4)NC(=O)CNC(=O)[C@@H](C)N(C)C(=O)[C@H](CC(=O)O)NC(=O)[C@H]([C@@H](C)c4cccc5ccccc45)NC(=O)[C@@H]4C[C@@H](N)CN4C(=O)CNC(=O)[C@H](Cc4ccc(C(=O)O)cc4)NC(=O)[C@H](Cc4c[nH]c5ccccc45)NC3=O)cc2)CC1 [Example 199] (cyclo([Phe(4-(4-Ac-piperazinyl))]W[Phe(4-COOH)]G[Pro(4R-NH2)][1Nal(3S-Me)]D[dNMeA]G[Bip(4'-COOH)][4Pal]G[dαMeDab][hCha]))

# Source: US20230406885A1, “CYCLIC PEPTIDES FOR TRAPPING INTERLEUKIN-1 BETA” (MERCK SHARP & DOHME LLC, priority 2022, published 2023)
